Test results from patent publication US5021549A, “Physiologically active substances, probestin and prostatin and production thereof” (priority 1987, dated 1991).

Key:
Aminopeptidase-A = Aminopeptidase-A (Homo sapiens, UniProt Q07075); assay: Inhibition of aminopeptidase-A
aminopeptidase M = molecular target: T1, aminopeptidase M (Sus scrofa, UniProt P15145); assay: Inhibition of aminopeptidase M (L-leucine-β-naphthylamide substrate); type: biochemical; settings: read-out: Value of IC50 against Aminopeptidase M (converted)
T1 construct: purchased Boehringer Mannheim Company
T1 sequence (P15145 1-963): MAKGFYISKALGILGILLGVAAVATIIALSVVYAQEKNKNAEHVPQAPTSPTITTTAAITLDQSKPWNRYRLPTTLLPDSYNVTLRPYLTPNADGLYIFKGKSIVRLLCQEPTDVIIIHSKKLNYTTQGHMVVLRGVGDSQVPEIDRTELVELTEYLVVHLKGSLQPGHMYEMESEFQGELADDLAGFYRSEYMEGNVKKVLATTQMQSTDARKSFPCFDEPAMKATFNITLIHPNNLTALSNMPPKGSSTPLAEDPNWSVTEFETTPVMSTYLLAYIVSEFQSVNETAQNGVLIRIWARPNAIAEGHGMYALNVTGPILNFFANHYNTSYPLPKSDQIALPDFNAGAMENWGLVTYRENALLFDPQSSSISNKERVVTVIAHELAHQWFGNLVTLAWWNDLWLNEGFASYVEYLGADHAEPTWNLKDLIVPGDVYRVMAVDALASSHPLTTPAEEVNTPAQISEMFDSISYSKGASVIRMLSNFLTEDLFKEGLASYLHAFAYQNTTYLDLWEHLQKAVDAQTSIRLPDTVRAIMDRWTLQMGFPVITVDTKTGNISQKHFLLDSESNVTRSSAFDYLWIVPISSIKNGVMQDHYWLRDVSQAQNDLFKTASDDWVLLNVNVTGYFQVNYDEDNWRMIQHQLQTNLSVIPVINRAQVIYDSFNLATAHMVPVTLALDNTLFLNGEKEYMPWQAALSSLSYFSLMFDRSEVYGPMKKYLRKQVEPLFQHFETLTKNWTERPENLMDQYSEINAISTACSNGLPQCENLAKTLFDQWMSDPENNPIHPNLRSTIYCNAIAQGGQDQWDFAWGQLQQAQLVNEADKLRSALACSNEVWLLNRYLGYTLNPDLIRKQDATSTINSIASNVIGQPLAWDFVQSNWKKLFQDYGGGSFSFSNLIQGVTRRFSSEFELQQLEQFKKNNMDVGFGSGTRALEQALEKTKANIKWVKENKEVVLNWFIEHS
Description: The mixture solution obtained is heated at 37° C. for 3 minutes. To the heated solution is added 0.05 ml of an aqueous solution of aminopeptidase M (a product of Boehringer Mannheim Company; 4 units/mg). The resulting mixture is incubated for 30 minutes at 37° C. for the enzymatic reaction and the resultant reaction mixture is admixed with 1 ml of 1.0 M acetate buffered solution (pH 4.2) containing 10% of a surfectant "Tween" 20 and 0.1% of Fast Garnet GBC (0-aminoazotoluene, diazonium salt) to stop the enzymatic reaction. After allowing the resulting mixture to stand at ambient temperature for 15 minutes, the absorbance of light at 525 nm of the resultant reaction solution is measured, with designating the measured value as value (a). […] The rate (%) of inhibition to the aminopeptidase M is calculated from an equation [(b-a)/b]×100.

Leucine-aminopeptidase = Leucine-aminopeptidase (Homo sapiens, UniProt P28838); assay: Inhibition of leucine-aminopeptidase
Chain of Leucine-aminopeptidase (P28838 whole entry): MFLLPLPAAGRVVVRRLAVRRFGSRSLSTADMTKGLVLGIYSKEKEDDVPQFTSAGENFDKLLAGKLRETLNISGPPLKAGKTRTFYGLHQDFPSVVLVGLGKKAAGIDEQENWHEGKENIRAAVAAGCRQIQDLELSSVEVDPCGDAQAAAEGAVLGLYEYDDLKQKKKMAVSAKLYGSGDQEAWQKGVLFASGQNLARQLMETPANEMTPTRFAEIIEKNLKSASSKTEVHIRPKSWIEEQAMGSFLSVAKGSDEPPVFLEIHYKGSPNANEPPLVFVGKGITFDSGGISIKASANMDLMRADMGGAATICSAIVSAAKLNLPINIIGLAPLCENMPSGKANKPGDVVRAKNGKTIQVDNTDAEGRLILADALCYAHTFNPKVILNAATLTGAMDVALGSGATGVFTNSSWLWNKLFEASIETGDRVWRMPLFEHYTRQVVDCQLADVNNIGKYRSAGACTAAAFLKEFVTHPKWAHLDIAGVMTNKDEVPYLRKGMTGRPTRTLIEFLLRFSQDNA

Aminopeptidase-B = Aminopeptidase-B (Homo sapiens, UniProt Q9H4A4); assay: Inhibition of aminopeptidase-B
Chain of Aminopeptidase-B (Q9H4A4 whole entry): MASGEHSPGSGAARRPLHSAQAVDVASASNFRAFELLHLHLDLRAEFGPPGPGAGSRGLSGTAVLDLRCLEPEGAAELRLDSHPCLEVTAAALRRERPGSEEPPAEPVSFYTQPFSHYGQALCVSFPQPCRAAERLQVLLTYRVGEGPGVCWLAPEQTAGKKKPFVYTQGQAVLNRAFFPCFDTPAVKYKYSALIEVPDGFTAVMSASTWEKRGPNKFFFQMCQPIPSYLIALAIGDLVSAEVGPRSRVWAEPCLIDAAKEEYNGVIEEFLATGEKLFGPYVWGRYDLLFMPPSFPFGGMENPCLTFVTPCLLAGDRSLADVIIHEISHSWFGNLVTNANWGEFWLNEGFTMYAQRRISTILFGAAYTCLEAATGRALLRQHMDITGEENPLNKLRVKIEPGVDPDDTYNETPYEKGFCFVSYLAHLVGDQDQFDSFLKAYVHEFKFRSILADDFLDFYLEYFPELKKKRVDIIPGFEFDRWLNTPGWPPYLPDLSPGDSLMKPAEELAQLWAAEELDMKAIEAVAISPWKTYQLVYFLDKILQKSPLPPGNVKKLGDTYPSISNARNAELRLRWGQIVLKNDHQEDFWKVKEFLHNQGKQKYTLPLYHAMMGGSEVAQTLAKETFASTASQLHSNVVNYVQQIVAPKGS

mice = assay: Acute toxicity by intravenous injection in mice; type: in vivo
Solubility in solvents = type: physicochemical; settings: water and organic solvents
[1] = system: antibody-forming cells in spleen; assay: Humoral antibody formation: plaque-forming cells in spleen of SRBC-immunized mice (Jerne's hemolytic plaque technique); type: in vivo, CDF-mice; settings: for Number of PFC: counted 4 days after SRBC immunization; for T/C (%): PFC number versus control
Description: CDF-mice were immunized by intravenous injection of 10^8 sheep red blood cells (SRBC). 1000 μg/mouse, 250 μg/mouse or 62.5 μg/mouse of probestin was administered by intraperitoneal injection into the mice at the time of the immunization with SRBC (0 hour) and then totally three times, namely 24, 48 and 72 hours after the immunization. Four days after the immunization with SRBC, the number of the plaque-forming cell (PFC) (namely, the antibody-forming cells) in spleen was enumerated by the known Jerne's hemolytic plaque technique [Jerne, N.K; A. A. Nordin & C. Henry; "The agar plaque technique for recognizing antibody-producing cells in cell-bound antibodies" pp. 109-122 published by Wister Institute press, Philadelphia (1963)].

Chain of Aminopeptidase-A (Q07075 whole entry): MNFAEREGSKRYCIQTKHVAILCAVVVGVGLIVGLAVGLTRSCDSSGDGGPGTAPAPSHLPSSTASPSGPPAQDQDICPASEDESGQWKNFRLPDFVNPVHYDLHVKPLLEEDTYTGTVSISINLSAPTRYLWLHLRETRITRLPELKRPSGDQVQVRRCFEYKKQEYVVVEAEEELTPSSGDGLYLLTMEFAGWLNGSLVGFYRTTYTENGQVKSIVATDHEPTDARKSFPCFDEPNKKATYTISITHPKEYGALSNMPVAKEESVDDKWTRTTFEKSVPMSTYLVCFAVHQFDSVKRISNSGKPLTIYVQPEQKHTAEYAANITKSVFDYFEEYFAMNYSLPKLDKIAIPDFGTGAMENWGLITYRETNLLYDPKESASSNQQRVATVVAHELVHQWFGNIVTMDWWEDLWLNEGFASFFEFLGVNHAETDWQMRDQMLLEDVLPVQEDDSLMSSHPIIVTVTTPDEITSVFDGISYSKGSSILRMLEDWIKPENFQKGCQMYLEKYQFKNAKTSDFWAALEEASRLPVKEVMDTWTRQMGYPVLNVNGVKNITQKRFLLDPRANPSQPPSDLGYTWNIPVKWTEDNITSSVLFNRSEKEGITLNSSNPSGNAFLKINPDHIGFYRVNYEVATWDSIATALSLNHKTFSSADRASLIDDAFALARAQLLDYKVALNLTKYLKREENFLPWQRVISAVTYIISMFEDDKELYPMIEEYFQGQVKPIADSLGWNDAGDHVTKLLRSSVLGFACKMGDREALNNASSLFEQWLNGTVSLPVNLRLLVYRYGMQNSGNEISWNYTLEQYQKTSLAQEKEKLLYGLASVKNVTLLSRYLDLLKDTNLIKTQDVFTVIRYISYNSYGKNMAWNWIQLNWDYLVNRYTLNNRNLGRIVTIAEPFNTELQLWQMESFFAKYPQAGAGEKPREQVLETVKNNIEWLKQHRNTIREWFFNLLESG

| SMILES | IC50 (Aminopeptidase-A) | IC50 (aminopeptidase M) | IC50 (Leucine-aminopeptidase) | Value of IC50 against Aminopeptidase-B (Aminopeptidase-B) | LD50 (mice) | Solubility (Solubility in solvents) | Number of PFC ([1]; 62.5 μg/mouse ip. at 0, 24, 48, 72 h) | T/C (%) ([1]; 62.5 μg/mouse ip.) | Number of PFC ([1]; 250 μg/mouse ip. at 0, 24, 48, 72 h) | T/C (%) ([1]; 250 μg/mouse ip.) | Number of PFC ([1]; 1000 μg/mouse ip. at 0, 24, 48, 72 h) | T/C (%) ([1]; 1000 μg/mouse ip.) | Effect on number of antibody-forming cells in spleen (in words) ([1]; intraperitoneal injection, SRBC-immunized mice, probestin 1000 μg to 62.5 μg/mouse) | Value of IC50 against Aminopeptidase-A (Aminopeptidase-A) | Value of IC50 against Leucine-aminopeptidase (Leucine-aminopeptidase) |
| --- | --- | --- | --- | --- | --- | --- | --- | --- | --- | --- | --- | --- | --- | --- | --- |
| CCCCC[C@H](CC(=O)NO)C(=O)N[C@H](C(=O)N1CCC[C@H]1CO)C(C)C [Actinonin, actinonin, reference compound] | > 259000 nM | 1040 nM | 2590 nM | – | – | – | – | – | – | – | – | – | – | – | – |
| CC(C)C[C@H](NC(=O)[C@@H](O)[C@H](N)Cc1ccccc1)C(=O)N1CCC[C@H]1C(=O)N1CCC[C@H]1C(=O)O [Probestin] | – | – | – | 36.7 µg/mL | greater than 250 mg/kg | Readily soluble in water, methanol and dimethyl-sulfoxide, but insoluble in acetone, ethyl acetate, chloroform and hexane | 492.540 ± 69.980 × 10^3 /spleen | 212.1% | 631.680 ± 69.560 × 10^3 /spleen | 271.8% | 891.900 ± 162.610 × 10^3 /spleen | 384.1% | increased number of the antibody-forming cells in the spleen | > 100 µg/mL | 0.091 µg/mL |
